Source: ChEMBL document CHEMBL5338717, “Discovery of novel PDE4 inhibitors targeting the M-pocket from natural mangostanin with improved safety for the treatment of Inflammatory Bowel Diseases” (Eur J Med Chem, 2022)
Active and inactive are the calls of the source. No cut-off for these calls is given here.

Assays:
[1] = molecular target: T1, 3',5'-cyclic-AMP phosphodiesterase 4D (Homo sapiens, UniProt Q08499); assay: Inhibition of recombinant PDE4D2 (86 to 413 residues) (unknown origin) expressed in Escherichia coli BL21 using [3H]cAMP as substrate incubated for 15 mins by liquid scintillation method
[2] = Metabolic stability in rat liver microsomes assessed as half life; type: ADME, Microsome
[3] = molecular target: T1, 3',5'-cyclic-AMP phosphodiesterase 4D; assay: Inhibition of PDE4D2 (unknown origin)
[4] = Inhibition of PDE7 (unknown origin); parameters: species or system Homo sapiens
[5] = tested on: Mus musculus; assay: Anti-inflammatory bowel disease activity in DSS-induced inflammatory bowel disease C57BL/6 mouse model assessed as decrease in body weight loss by measuring disease activity index score at 25 mg/kg, iv BID and measured upto 8 days; type: functional, organism-based; conditions: time <= 8.0 day
[6] = tested on: Mus musculus; assay: Anti-inflammatory bowel disease activity in DSS-induced inflammatory bowel disease C57BL/6 mouse model assessed as decrease in diarrhoea by measuring disease activity index score at 25 mg/kg, iv BID and measured upto 8 days; type: functional, organism-based; conditions: time <= 8.0 day
[7] = tested on: Mus musculus; assay: Anti-inflammatory bowel disease activity in DSS-induced inflammatory bowel disease C57BL/6 mouse model assessed as decrease in rectal bleeding by measuring disease activity index score at 25 mg/kg, iv BID and measured upto 8 days by Haem-occult test; type: functional, organism-based; conditions: time <= 8.0 day
[8] = tested on: Mus musculus; assay: Anti-inflammatory bowel disease activity in DSS-induced inflammatory bowel disease C57BL/6 mouse model assessed as increase in colon length at 25 mg/kg, iv BID and measured upto 8 days; type: functional, organism-based; conditions: time <= 8.0 day
[9] = tested on: Mus musculus; assay: Anti-inflammatory bowel disease activity in DSS-induced inflammatory bowel disease C57BL/6 mouse model assessed as decrease in mucosal ulceration in colon at 25 mg/kg, iv BID and measured after 8 days by Haematoxylin and eosin staining based microscopy; type: functional, organism-based; conditions: time 8.0 day
[10] = tested on: Mus musculus; assay: Anti-inflammatory bowel disease activity in DSS-induced inflammatory bowel disease C57BL/6 mouse model assessed as decrease in loss of crypt architecture in colon at 25 mg/kg, iv BID and measured after 8 days by Haematoxylin and eosin staining based microscopy; type: functional, organism-based; conditions: time 8.0 day
[11] = tested on: Mus musculus; assay: Anti-inflammatory bowel disease activity in DSS-induced inflammatory bowel disease C57BL/6 mouse model assessed as decrease in goblet cells in colon at 25 mg/kg, iv BID and measured after 8 days by Haematoxylin and eosin staining based microscopy; type: functional, organism-based; conditions: time 8.0 day
[12] = tested on: Mus musculus; assay: Anti-inflammatory bowel disease activity in DSS-induced inflammatory bowel disease C57BL/6 mouse model assessed as decrease in epithelial damage in colon at 25 mg/kg, iv BID and measured after 8 days by Haematoxylin and eosin staining based microscopy; type: functional, organism-based; conditions: time 8.0 day
[13] = tested on: Mus musculus; assay: Anti-inflammatory bowel disease activity in DSS-induced inflammatory bowel disease C57BL/6 mouse assessed as decrease in neutrophil infiltration in colon at 25 mg/kg, iv BID and measured after 8 days by Haematoxylin and eosin staining based microscopy; type: functional, organism-based; conditions: time 8.0 day
[14] = tested on: Mus musculus; assay: Anti-inflammatory bowel disease activity in DSS-induced inflammatory bowel disease C57BL/6 mouse model assessed as increase in body weight at 25 mg/kg, iv BID and measured after 8 days […]; type: functional, organism-based; conditions: time 8.0 day
[15] = tested on: Mus musculus; assay: Anti-inflammatory bowel disease activity in DSS-induced inflammatory bowel disease C57BL/6 mouse model assessed as decrease in IFN-gamma mRNA expression level in colon at 25 mg/kg, iv BID and measured after 8 days by real-time PCR analysis; type: functional, organism-based; conditions: time 8.0 day
[16] = tested on: Mus musculus; assay: Anti-inflammatory bowel disease activity in DSS-induced inflammatory bowel disease C57BL/6 mouse model assessed as decrease in TNF-alpha mRNA expression level in colon at 25 mg/kg, iv BID and measured after 8 days by real-time PCR analysis; type: functional, organism-based; conditions: time 8.0 day
[17] = tested on: Mus musculus; assay: Anti-inflammatory bowel disease activity in DSS-induced inflammatory bowel disease C57BL/6 mouse model assessed as decrease in IL-6 mRNA expression level in colon at 25 mg/kg, iv BID and measured after 8 days by real-time PCR analysis; type: functional, organism-based; conditions: time 8.0 day
[18] = tested on: Mus musculus; assay: Anti-inflammatory bowel disease activity in DSS-induced inflammatory bowel disease C57BL/6 mouse model assessed as decrease in IL-10 mRNA expression level in colon at 25 mg/kg, iv BID and measured after 8 days by real-time PCR analysis; type: functional, organism-based; conditions: time 8.0 day
[19] = Toxicity in twelve hrs fasted Beagle dog assessed as emesis at 1 mg/kg,po and measured upto 180 mins; type: organism-based, Canis lupus familiaris; conditions: in vivo, 3 h

T1 sequence (Q08499 whole entry, the tested form may be a part): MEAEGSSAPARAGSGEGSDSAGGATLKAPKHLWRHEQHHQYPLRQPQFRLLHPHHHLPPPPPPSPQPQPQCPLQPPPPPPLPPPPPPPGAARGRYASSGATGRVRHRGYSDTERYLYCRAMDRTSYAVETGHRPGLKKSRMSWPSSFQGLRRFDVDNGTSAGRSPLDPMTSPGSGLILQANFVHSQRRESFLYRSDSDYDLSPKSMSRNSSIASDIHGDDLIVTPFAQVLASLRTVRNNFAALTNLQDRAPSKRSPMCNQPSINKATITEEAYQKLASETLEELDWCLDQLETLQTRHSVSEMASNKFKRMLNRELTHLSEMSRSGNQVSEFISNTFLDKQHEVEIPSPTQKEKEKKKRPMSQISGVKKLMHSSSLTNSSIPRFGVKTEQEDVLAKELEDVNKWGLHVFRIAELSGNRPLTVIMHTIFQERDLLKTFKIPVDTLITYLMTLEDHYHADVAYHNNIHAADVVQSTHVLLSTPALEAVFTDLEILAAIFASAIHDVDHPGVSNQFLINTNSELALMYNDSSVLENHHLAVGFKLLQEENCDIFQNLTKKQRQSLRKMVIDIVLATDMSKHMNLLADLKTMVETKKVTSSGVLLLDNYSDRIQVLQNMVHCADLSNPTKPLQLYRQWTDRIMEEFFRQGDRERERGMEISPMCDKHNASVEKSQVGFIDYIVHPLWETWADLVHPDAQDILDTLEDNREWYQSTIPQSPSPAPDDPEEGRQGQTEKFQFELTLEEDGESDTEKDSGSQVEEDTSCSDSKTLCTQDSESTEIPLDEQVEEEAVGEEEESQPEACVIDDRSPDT

Row | SMILES | IC50 [1] [nM] | half-life [2] [min] | also measured
1 | COc1c(O)cc2oc3cc4c(c(OCc5cccnc5)c3c(=O)c2c1CC=C(C)C)C=CC(C)(C)O4 | > 1000 |  | 
2 | COc1c(O)cc2oc3cc4c(c(O)c3c(=O)c2c1CC=C(C)C)C=CC(C)(C)O4 [MANGOSTANIN] |  | 8.1 | 
3 | COc1c(OCc2ccccc2)cc2oc3cc4c(c(OCc5ccncc5)c3c(=O)c2c1CC=C(C)C)C=CC(C)(C)O4 | 1.4 | 315 | 
4 | COc1cc2oc3cc4c(c(OCc5ccncc5)c3c(=O)c2c(CC=C(C)C)c1OC)C=CC(C)(C)O4 | 11.7 | 2.08 | 
5 | COc1c(OCc2ccc(F)cc2)cc2oc3cc4c(c(OCc5cccnc5)c3c(=O)c2c1CC=C(C)C)C=CC(C)(C)O4 | 8.2 |  | 
6 | CCOc1cc2oc3cc4c(c(OCc5ccncc5)c3c(=O)c2c(CC=C(C)C)c1OC)C=CC(C)(C)O4 | 10.2 | 2.98 | 
7 | COc1c(OCc2cccc(F)c2)cc2oc3cc4c(c(OCc5ccncc5)c3c(=O)c2c1CC=C(C)C)C=CC(C)(C)O4 | 7.8 |  | 
8 | COc1c(O)cc2oc3cc4c(c(OCc5ccncc5)c3c(=O)c2c1CC=C(C)C)C=CC(C)(C)O4 | 25 | 6.7 | 
9 | OCCN(CCO)c1nc(N2CCCCC2)c2nc(N(CCO)CCO)nc(N3CCCCC3)c2n1 [DIPYRIDAMOLE] |  |  | IC50 [3]: 2800 nM; IC50 [4]: 600 nM; Activity [5]: Active; Activity [6]: Active; Activity [7]: Active; Activity [8]: Active; Activity [9]: Active; Activity [10]: Active; Activity [11]: Active; Activity [12]: Active; Activity [13]: Active; Activity [14]: inactive; Activity [15]: Active; Activity [16]: Active; Activity [17]: Active; Activity [18]: Active
10 | COc1c(OCc2ccc(F)cc2)cc2oc3cc4c(c(OCc5ccncc5)c3c(=O)c2c1CC=C(C)C)C=CC(C)(C)O4 | 1.4 | 33 | 
11 | COc1c(OCc2ccncc2)cc2oc3cc4c(c(OCc5ccncc5)c3c(=O)c2c1CC=C(C)C)C=CC(C)(C)O4 | 10.6 | 16 | 
12 | COc1ccc(C2CNC(=O)C2)cc1OC1CCCC1 (stereo not drawn) [ROLIPRAM] |  |  | Activity [19]: Toxic

More lines, main results first:

Row | IC50 [1] [nM] | half-life [2] [min] | SMILES | also measured
13 | 203 | 0.9 | COc1c(O)cc2oc3cc4c(c(OCc5ccccn5)c3c(=O)c2c1CC=C(C)C)C=CC(C)(C)O4 | 
14 | 5.2 | 78 | COc1c(OC(C)C)cc2oc3cc4c(c(OCc5ccncc5)c3c(=O)c2c1CC=C(C)C)C=CC(C)(C)O4 | 
15 | > 1000 |  | COc1c(O)cc2oc3cc4c(c(OCc5ccccc5)c3c(=O)c2c1CC=C(C)C)C=CC(C)(C)O4 | 
16 | 20.2 |  | COc1c(OCc2ccc(F)cc2)cc2oc3cc4c(c(OCc5ccccn5)c3c(=O)c2c1CC=C(C)C)C=CC(C)(C)O4 | 
17 | 9.3 |  | COc1c(OCc2cccc(F)c2)cc2oc3cc4c(c(OCc5ccccn5)c3c(=O)c2c1CC=C(C)C)C=CC(C)(C)O4 | 
18 | 12.4 |  | COc1c(OCc2ccc(F)cc2)cc2oc3cc4c(c(OCC5CCNCC5)c3c(=O)c2c1CC=C(C)C)C=CC(C)(C)O4 | 
19 | 6.5 | 3 | COc1c(OCc2ccccn2)cc2oc3cc4c(c(OCc5ccccn5)c3c(=O)c2c1CC=C(C)C)C=CC(C)(C)O4 | 
